What was measured:
[1] = target: ALK4 (Homo sapiens, UniProt P36896); test: Kinase selectivity panel: ALK4; assay type: biochemical
[2] = target: BRAF (Homo sapiens, UniProt P15056); test: Kinase selectivity panel: BRAF; assay type: biochemical
[3] = target: CAMK2D (Homo sapiens, UniProt Q13557); test: Kinase selectivity panel: CAMK2D; assay type: biochemical
[4] = target: T1, CHEK1 (Homo sapiens, UniProt O14757); test: Kinase selectivity panel: CHEK1; assay type: biochemical
T1 sequence (O14757 1-476): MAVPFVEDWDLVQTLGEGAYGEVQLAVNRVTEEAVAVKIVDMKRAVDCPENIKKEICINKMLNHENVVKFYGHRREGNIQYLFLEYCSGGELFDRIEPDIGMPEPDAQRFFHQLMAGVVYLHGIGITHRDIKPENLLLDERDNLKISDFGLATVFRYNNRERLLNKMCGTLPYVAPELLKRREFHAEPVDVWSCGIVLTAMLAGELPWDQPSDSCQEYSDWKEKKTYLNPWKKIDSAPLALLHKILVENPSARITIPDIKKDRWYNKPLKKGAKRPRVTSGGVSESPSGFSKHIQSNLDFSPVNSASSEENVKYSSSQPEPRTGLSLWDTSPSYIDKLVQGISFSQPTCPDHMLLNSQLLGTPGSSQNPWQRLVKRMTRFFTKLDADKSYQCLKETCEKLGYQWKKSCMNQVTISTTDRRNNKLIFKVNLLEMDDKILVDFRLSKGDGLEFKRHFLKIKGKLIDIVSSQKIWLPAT

[5] = target: FGFR1 (Homo sapiens, UniProt P11362); test: Kinase selectivity panel: FGFR1; assay type: biochemical
[6] = target: mTOR (Homo sapiens, UniProt P42345); test: Kinase selectivity panel: mTOR; assay type: biochemical
[7] = target: GSK3beta (Homo sapiens, UniProt P49841); test: Kinase selectivity panel: GSK3beta; assay type: biochemical
[8] = target: JAK3 (Homo sapiens, UniProt P52333); test: Kinase selectivity panel: JAK3; assay type: biochemical
[9] = target: TAK1-TAB1 (Homo sapiens, UniProt O43318); test: Kinase selectivity panel: TAK1-TAB1; assay type: biochemical
[10] = target: JNK1 (Homo sapiens, UniProt P45983); test: Kinase selectivity panel: JNK1; assay type: biochemical
[11] = target: MAPKAPK2 (Homo sapiens, UniProt P49137); test: Kinase selectivity panel: MAPKAPK2; assay type: biochemical
[12] = target: cMet (Homo sapiens, UniProt P08581); test: Kinase selectivity panel: cMet; assay type: biochemical
[13] = target: NEK1 (Homo sapiens, UniProt Q96PY6); test: Kinase selectivity panel: NEK1; assay type: biochemical
[14] = target: PAK4 (Homo sapiens, UniProt O96013); test: Kinase selectivity panel: PAK4; assay type: biochemical
[15] = target: PHKG2 (Homo sapiens, UniProt P15735); test: Kinase selectivity panel: PHKG2; assay type: biochemical
[16] = target: PKA (Homo sapiens, UniProt P17612); test: Kinase selectivity panel: PKA; assay type: biochemical
[17] = target: P70S6K (Homo sapiens, UniProt P23443); test: Kinase selectivity panel: P70S6K; assay type: biochemical
[18] = target: Tie2 (Homo sapiens, UniProt Q02763); test: Kinase selectivity panel: Tie2; assay type: biochemical
[19] = target: G2019S LRRK2 (Homo sapiens, UniProt Q5S007, G2019S); test: G2019S LRRK2 inhibition (Invitrogen SelectScreen / TR-FRET biochemical assay); parameters: The protein construct used in the assay is GST tagged 969-2527; GST; purchased Invitrogen; conditions: numeric value
Description: IC50s were determined using Invitrogen's SelectScreen® Profiling Service for wild type and LRRK2 G2019S. The test compounds were screened in 1% DMSO (final) in the well.
a) % inhibition is measured at one concentration
b) a 10-point titration is run to ensure the kinase is inhibited within an expected IC50 range
Biochemical Assay Protocol:
Compound potency against wild-type and G2019S LRRK2 is measured via TR-FRET. The IC50, the amount of inhibitor required to inhibitor 50% of the protein under the given assay conditions, is determined by varying the amount of compound (500-0.001 uM) by serial dilution with 12-data points per compound, in duplicate. The substrate (Fluorescein-GAGRLGRDKYKTLRQIRQ) and ATP is fixed at 0.8 uM and 57 uM (KmATP), respectively. All assays are run in Corning low volume […] round bottomed plates. The assay is run in 50 mM Tris-HCl pH8.5, 10 mM MgCl2, 0.01% Brij-35, 1 mM EGTA, 2 mMDTT. The TR-FRET assay is an end-point assay where the reaction with protein, substrate, inhibitor and ATP is incubated for 1 hour at room temperature. The compound is pre-incubated with the protein and substrate prior to initiating the reaction with ATP. Phospho-transfer is detected using a Terbium labeled anti-pLRRKtide that binds to phosphorylated substrate creating FRET transfer when excited at 340 nm. Emissions signals are taken for terbium and FRET induced fluorescein at 495 nm and 520 nm, respectively, using a Biotek Synergy 2 spectrophotometer. The dose response is determined by plotting the emission ratio of 520/495 against the log of the inhibitor concentration. The maximum inhibition and non-inhibition controls is run on all plates. Staurosporine is used as the positive inhibition control and DMSO is used as the negative point control. A 12-point dose curve of Staurosporine is run as a dosing control. The IC50 is determined to be the inhibitor concentration at which 50% inhibition is achieved. The protein construct used in the assay is GST tagged 969-2527. The protein is commercially available from Invitrogen.
Alternatively, compounds of formulas (II), (I), (I-A), (I-B), (I-C), (I-D), (I-D-1), (I-D-2), (I-E), (I-F), (I-G), (I-H), (I-I), (I-I-1), (I-I-2), (I-J), (I-K), (I-L), (I-M), (I-N), (I-Z-1), (I-Z-2), (I-Z-2-a), (I-Z-2-b), (I-Z-2-c), (I-Z-2-d), (I-Z-3-a), (I-Z-3-b), (I-Z-3-c), or (I-Z-3-d) were tested using Invitrogen's SelectScreen® Profiling Service for LRRK2 G2019S.

CAMK2D, sequence (Q13557 whole entry, species assumed): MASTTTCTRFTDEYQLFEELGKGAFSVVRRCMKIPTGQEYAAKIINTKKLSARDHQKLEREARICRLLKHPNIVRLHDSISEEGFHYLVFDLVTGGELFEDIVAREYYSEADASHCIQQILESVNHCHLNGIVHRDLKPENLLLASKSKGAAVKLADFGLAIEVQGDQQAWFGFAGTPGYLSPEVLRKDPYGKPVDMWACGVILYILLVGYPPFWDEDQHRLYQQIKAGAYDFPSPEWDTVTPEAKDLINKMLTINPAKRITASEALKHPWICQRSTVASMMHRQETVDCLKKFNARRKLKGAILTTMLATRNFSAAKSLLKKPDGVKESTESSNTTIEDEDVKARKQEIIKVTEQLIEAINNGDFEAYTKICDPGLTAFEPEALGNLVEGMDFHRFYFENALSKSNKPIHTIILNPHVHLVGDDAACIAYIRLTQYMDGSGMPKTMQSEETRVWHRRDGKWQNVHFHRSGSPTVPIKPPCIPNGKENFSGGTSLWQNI
FGFR1, sequence (P11362 22-822, species assumed): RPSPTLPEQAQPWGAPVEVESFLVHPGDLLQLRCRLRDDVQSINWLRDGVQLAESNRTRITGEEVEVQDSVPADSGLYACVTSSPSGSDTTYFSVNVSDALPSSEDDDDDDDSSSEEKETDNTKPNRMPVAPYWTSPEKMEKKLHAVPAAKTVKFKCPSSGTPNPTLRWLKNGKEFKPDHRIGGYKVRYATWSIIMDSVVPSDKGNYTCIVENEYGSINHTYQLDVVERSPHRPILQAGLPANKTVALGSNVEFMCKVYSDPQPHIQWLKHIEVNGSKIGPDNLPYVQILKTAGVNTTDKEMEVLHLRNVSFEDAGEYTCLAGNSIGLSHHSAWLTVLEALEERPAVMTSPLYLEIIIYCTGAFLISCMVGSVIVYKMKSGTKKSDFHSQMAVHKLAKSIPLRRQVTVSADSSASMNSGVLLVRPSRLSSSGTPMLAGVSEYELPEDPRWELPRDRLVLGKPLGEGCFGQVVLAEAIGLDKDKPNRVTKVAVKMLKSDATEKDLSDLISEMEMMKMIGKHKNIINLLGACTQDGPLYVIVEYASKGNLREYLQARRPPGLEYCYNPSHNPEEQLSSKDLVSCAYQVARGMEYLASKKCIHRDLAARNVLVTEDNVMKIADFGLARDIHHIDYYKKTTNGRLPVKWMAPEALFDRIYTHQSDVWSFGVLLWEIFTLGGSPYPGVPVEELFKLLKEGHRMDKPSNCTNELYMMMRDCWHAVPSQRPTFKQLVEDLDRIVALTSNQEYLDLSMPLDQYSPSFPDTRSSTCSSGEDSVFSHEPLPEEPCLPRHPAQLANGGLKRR
G2019S LRRK2, sequence (Q5S007 969-2527 G2019S): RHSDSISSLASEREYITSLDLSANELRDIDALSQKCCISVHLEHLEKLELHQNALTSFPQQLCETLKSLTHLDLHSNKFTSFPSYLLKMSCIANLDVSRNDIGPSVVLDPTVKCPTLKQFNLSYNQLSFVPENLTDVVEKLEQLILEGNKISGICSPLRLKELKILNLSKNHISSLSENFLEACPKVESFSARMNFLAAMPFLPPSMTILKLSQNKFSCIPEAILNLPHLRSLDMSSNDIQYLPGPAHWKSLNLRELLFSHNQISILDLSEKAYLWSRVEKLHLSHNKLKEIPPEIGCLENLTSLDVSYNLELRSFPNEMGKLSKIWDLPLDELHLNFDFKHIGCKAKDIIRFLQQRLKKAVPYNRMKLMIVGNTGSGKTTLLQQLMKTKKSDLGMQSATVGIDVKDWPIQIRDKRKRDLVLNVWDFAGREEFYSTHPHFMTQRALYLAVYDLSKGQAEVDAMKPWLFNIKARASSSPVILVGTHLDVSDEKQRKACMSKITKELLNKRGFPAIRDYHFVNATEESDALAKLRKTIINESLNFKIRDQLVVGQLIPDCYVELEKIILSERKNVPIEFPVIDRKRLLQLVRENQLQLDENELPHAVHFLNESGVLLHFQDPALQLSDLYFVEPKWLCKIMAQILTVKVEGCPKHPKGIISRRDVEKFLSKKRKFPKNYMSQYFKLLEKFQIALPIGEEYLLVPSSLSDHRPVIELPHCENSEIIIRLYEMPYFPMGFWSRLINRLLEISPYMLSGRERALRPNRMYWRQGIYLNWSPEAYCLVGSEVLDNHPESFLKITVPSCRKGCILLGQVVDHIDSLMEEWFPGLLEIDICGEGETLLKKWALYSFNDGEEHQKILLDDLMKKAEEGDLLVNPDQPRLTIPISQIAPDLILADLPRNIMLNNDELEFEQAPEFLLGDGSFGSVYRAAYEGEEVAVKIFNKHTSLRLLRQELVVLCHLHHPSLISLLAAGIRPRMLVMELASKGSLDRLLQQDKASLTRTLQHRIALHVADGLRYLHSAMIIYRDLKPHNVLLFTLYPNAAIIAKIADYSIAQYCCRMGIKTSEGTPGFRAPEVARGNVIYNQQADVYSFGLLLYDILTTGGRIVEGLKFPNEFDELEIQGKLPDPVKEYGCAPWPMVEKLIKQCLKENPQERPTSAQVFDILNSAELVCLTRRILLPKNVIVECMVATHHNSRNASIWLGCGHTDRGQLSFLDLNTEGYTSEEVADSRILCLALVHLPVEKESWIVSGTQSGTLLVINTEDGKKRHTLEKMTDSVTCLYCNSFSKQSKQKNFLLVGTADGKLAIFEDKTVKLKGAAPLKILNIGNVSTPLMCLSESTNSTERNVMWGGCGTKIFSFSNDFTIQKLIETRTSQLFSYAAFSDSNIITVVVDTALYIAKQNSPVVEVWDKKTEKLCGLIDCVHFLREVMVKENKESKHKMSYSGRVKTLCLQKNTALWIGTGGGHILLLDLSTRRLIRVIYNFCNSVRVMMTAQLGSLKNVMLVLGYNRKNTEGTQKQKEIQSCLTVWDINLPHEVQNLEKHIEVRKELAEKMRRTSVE
cMet, sequence (P08581 25-1390): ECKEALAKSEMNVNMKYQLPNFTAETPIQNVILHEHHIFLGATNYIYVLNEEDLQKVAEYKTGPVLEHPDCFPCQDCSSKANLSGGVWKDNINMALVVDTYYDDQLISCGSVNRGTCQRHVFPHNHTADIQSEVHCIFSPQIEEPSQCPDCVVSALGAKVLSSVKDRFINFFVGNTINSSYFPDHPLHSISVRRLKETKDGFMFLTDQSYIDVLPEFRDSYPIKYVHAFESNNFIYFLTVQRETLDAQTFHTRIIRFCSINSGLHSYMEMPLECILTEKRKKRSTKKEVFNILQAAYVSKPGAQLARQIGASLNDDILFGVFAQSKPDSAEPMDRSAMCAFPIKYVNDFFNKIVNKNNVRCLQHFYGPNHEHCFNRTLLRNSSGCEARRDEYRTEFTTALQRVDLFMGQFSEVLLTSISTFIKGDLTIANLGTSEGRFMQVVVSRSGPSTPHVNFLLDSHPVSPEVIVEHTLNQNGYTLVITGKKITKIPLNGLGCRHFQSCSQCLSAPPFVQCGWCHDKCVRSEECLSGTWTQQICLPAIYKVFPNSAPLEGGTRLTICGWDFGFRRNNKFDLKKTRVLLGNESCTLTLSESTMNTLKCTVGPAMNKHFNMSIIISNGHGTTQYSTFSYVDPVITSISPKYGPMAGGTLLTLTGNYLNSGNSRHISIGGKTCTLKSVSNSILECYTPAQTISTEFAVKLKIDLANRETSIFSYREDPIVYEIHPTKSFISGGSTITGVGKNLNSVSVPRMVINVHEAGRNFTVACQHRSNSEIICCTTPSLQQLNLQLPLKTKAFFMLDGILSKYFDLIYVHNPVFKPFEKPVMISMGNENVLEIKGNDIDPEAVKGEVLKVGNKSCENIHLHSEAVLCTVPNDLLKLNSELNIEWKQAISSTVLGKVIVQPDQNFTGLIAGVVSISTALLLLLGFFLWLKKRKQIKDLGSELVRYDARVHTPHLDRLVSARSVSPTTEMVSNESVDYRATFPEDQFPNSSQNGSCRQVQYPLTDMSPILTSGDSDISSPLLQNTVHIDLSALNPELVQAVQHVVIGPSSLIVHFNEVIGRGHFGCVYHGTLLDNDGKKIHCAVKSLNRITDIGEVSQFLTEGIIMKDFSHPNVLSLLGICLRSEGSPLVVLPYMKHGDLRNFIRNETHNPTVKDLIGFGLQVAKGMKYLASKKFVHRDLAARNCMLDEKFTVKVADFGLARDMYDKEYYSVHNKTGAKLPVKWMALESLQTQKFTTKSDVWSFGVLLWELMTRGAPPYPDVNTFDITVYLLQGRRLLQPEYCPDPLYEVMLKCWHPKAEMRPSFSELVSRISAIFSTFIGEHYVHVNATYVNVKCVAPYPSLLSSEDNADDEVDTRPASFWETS
GSK3beta, sequence (P49841 whole entry, species assumed): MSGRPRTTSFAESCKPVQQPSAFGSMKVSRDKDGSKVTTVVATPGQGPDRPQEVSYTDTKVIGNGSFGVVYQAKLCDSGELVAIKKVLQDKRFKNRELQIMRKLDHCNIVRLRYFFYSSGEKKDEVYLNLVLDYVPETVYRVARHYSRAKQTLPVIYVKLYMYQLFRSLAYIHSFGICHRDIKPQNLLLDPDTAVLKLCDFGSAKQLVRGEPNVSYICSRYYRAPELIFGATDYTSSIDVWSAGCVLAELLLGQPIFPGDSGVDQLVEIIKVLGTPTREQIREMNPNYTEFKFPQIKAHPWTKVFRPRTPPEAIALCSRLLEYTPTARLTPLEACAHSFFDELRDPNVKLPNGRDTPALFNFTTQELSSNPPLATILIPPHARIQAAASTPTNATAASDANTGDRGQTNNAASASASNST
TAK1-TAB1, sequence (O43318 1-303 limits assumed): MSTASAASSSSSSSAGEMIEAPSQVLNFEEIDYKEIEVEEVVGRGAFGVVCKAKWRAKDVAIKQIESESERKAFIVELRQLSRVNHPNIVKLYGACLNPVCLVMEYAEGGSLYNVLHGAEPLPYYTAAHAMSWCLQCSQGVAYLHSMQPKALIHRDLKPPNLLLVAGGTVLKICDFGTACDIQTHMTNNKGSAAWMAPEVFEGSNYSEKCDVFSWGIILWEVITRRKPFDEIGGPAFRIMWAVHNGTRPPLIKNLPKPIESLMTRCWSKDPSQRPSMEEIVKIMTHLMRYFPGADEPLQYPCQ
TAK1-TAB1, sequence (Q15750 437-504 partner limits assumed): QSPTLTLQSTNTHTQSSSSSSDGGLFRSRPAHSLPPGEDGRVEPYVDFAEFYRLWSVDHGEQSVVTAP

Compound: COc1ccc2c(c1)/C(=C/c1cnc(C3CCOCC3)[nH]1)C(=O)N2 [Compound 18, (3Z)-5-methoxy-3-[(2-tetrahydropyran-4-yl-1H-imidazol-5-yl)methylene]indolin-2-one]
- inhibition at 0.1 µM [1]: -3%
- inhibition at 0.1 µM [2]: 18%
- IC50 [3]: 276 nM
- inhibition at 0.1 µM ([3]; @0.1 uM): 41%
- IC50 [4]: > 10000 nM
- inhibition at 0.1 µM ([4]; @0.1 uM): 3%
- inhibition at 0.1 µM [5]: 9%
- inhibition at 0.1 µM [6]: 12%
- inhibition at 0.1 µM [7]: 0%
- inhibition at 0.1 µM [8]: 2%
- inhibition at 0.1 µM [9]: -3%
- inhibition at 0.1 µM [10]: -5%
- inhibition at 0.1 µM [11]: 4%
- inhibition at 0.1 µM [12]: 7%
- inhibition at 0.1 µM [13]: 10%
- inhibition at 0.1 µM [14]: 1%
- inhibition at 0.1 µM [15]: 3%
- inhibition at 0.1 µM [16]: 2%
- inhibition at 0.1 µM [17]: 5%
- inhibition at 0.1 µM [18]: -2%
- IC50 [19]: 5.5 nM

— patent US20140205537A1, “LRRK2 INHIBITORS” (ZENOBIA THERAPEUTICS, INC., priority 2011, published 2014)
